Assay results published in article PMC5126104, “Identification of a Chemoreceptor in Pseudomonas aeruginosa That Specifically Mediates Chemotaxis Toward α-Ketoglutarate” (Frontiers in Microbiology, 2016).

Key:
[1] = target: T1, McpK (PA5072) chemoreceptor ligand binding domain (Pseudomonas aeruginosa, UniProt Q9HUB1); parameters: thermal shift assay with SYPRO Orange, Tm change of recombinant McpK-LBD; settings: binder
T1 construct: McpK-LBD, Arg38–Ser293
Method: Thermal shift assays were performed using a BioRad MyIQ2 Real-Time PCR instrument. Ligands were prepared by dissolving Biolog Phenotype Microarray compounds in 50 μl of MilliQ water to obtain a final concentration of around 10–20 mM (as indicated by the manufacturer). Screening was performed with plates PM1, PM2A, PM3B, PM4A, and PM5. Each plate contains 95 compounds and a control (Supplementary Figure S1). Each 25 μl assay mixture contained 40 μM protein in 5 mM Tris, 5 mM Pipes, 5 mM Mes, pH8.0 and SYPRO orange (Life Technologies) at 5x concentration. Aliquots of 2.5 μl of the resuspended Biolog compounds were added to each well. Samples were heated from 23°C to 85°C at a scan rate of 1°C/min. The protein unfolding curves were monitored by detecting changes in SYPRO Orange fluorescence. Melting temperatures were determined using the first derivative values from the raw fluorescence data. […] Ligands tested included different bacterial carbon-, nitrogen-, phosphorous-, and sulfur sources as well as to nutrient supplements, which are listed in Supplementary Figure S1. A total of 13 compounds were identified that increased or decreased the Tm by at least 2°C (Supplementary Table S2), which is the generally accepted threshold for a relevant ligand-induced change in protein stability.

[2] = target: T1, McpK (PA5072) chemoreceptor ligand binding domain; test: ITC (two symmetric-site cooperative model; Kd1 =[…], Kd2 =[…]); supported by thermal shift (+[…]°C) and AUC dimer stabilization
[3] = target: the molecule itself; test: AUC; sedimentation velocity, McpK-LBD (10-50 uM) with 1 mM alpha-ketoglutarate, 7 °C, 5 mM Tris, 5 mM PIPES, 5 mM MES, pH 8.0; c(s) analysis in SEDFIT
[4] = target: the molecule itself; test: AUC; sedimentation equilibrium, multi-speed, ligand-free McpK-LBD at 40, 50 and 60 uM, 7 °C, dialysis buffer (5 mM Tris, 5 mM PIPES, 5 mM MES, pH 8.0); global fit in SEDPHAT; dimer to monomers
[5] = target: the molecule itself; test: AUC; sedimentation equilibrium, multi-speed, McpK-LBD at 40, 50 and 60 uM with 1 mM alpha-ketoglutarate, 7 °C, dialysis buffer (5 mM Tris, 5 mM PIPES, 5 mM MES, pH 8.0); global fit in SEDPHAT; dimer to monomers

Molecule	Tm Shift (°C) [1]	also measured
NCCCCC(=O)O [5-Aminovaleric acid]	+3.9 °C	–
CC(=O)O [Acetate]	-0.2 °C	–
CCCC(=O)O [Butyrate]	+0.7 °C	–
NC(=O)OP(=O)(O)O [Carbamyl phosphate]	+3.5 °C	–
O=C(O)CC(O)(CC(=O)O)C(=O)O [Citrate]	+0.8 °C	–
O=C1O[C@@H]([C@H](O)CO)[C@H](O)[C@H]1O [D-Galactonic acid-γ-lactone]	+2 °C	–
O=C(O)[C@H]1OC(O)[C@H](O)[C@@H](O)[C@H]1O (stereo partly drawn) [D-Galacturonic acid]	+2.3 °C	–
N[C@@H](C(=O)O)[C@@H](O)[C@H](O)[C@H](O)CO [D-Glucosaminic acid]	+3.5 °C	–
O=C(O)/C=C/C(=O)O [Fumarate]	+0.3 °C	–
C=C(CC(=O)O)C(=O)O [Itaconate]	-2.2 °C	–
N[C@@H](CCC(=O)O)C(=O)O [L-Glutamic acid]	+2.3 °C	–
NC(=O)CC[C@H](N)C(=O)O [L-Glutamine]	+2.2 °C	–
CC(O)C(=O)O (stereo not drawn) [Lactate]	+0.2 °C	–
O=C(O)CC(O)C(=O)O (stereo not drawn) [Malate]	+0.5 °C	–
COC(=O)C(C)=O [Methyl pyruvate]	+3.3 °C	–
O=C(O)CC(=O)C(=O)O [Oxaloacetate]	+0 °C	–
NCCc1ccccc1 [Phenylethylamine]	+3.5 °C	–
CC(=O)C(=O)O [Pyruvate]	+0.1 °C	–
O=C(O)CCC(=O)O [Succinate]	-0.3 °C	–
O=C(O)CC(CC(=O)O)C(=O)O [Tricarballylate]	+0.3 °C	–
O=c1cc[nH]c(=O)[nH]1 [Uracil]	+4.2 °C	–
O=C(O)CCC(=O)C(=O)O [α-ketoglutarate]	+5.2 °C	Kd [2]: 80.9 µM
NCCCC(=O)O [γ-Aminobutyric acid]	+4.1 °C	–
McpK ligand binding domain (McpK-LBD) (domain or fragment, Pseudomonas aeruginosa PAO1, UniProt Q9HUB1 38-293, looked up, No removal of the tag is described; In monomer-dimer equilibrium by AUC; also called PA5072-LBD; source: E. coli BL21 (DE3), pET28-McpK-LBD, purified (HisTrap column)) RTLTHQTALSEQLAEVASLMEQTQQAEQGRLAFEAGSDPRQAEQVRQTLAGMLQRLQALRDSELDPAALAHQVEAIEAYRKAFDDLAAADQQRSAARGVLVGTAQQALDSFARLEELMDASLAQQAGDPQALQRSRAVADLHQQLLMVRYQVRGYVFERSDKAEQAAFAAFDALRQAATTLRGQLPGEADAALEQAMGSLQGYRGGIEQFRAGVIRTRQAQQAMQSSTQDMARAGRTLTEAGRQLRESTASRDRAS	–	stoichiometry N [3]: 2; Kd [4]: 55 µM; Kd [5]: 5.9 µM
